{"source": "patent US7482371B2", "about": "“N-phenylbenzamide derivatives as drugs for the treatment of COPD” (Rottapharm S.p.A., priority 2004, dated 2009)", "key": {"[1]": {"system": "slices of guinea pig airways", "test": "CGRP-LI outflow from slices of guinea pig airways (EIA)", "assay_type": "cell-based", "description": "(§1) Slices of guinea pig trachea and bronchi or of rat dorsal spinal cord were prepared and transferred to perfusion chambers and perfused. After an equilibration period, samples were collected before, during and after the delivery of an excitatory stimulus (KCl 80 mM). The effect of Andolast was compared with the effect of its vehicle. CGRP-like immunoreactivity (GCRP-LI) was measured by enzyme immunoassay (EIA)."}, "[2]": {"system": "newborn rat cultured DRG neurons", "test": "[Ca2+]i mobilization in cultured DRG neurons (Fura-2)", "assay_type": "cell-based", "description": "Dorsal root ganglia (DRG) were removed from 1-3 days old rats and dissociated into single cells according to well established procedures. Cells, plated on coated glass coverslips were loaded with Fura-2-AM-ester to detect relative intracellular calcium ([Ca^2+]i) changes.\nDuring the Ca^2+ fluorescence the cells were excited with electrical stimulation (10 Hz, 1 ms, 0.40 mA/cm^2 for 10 sec) twice with a resting period between each stimulation of 20 min. These experiments were performed in the presence or absence of 100 nM charybdotoxin."}, "[3]": {"system": "T lymphocytes (Th2)", "test": "Treatment course in atopic mild-moderate asthmatic patients", "assay_type": "in vivo, human", "conditions": "standard treatment course"}, "[4]": {"system": "human B lymphocytes from allergic donors", "test": "IL-4 dependent IgE synthesis by human B lymphocytes", "assay_type": "cell-based"}, "[5]": {"system": "guinea pig isolated bronchial rings", "test": "eNANC contractile response of isolated guinea pig bronchial rings", "assay_type": "cell-based", "description": "Guinea pig bronchial rings were mounted in organ baths. After an equilibration period the eNANC contractile response to EFS (5 Hz, 20 sec, 0.5 ms pulse width at 40 V) in the presence of atropine (1 μM) was studied. The effects of Andolast or its vehicle on the eNANC were studied in parallel experiments in the presence or absence of 100 nM charybdotoxin. The ability of Andolast to affect the direct bronchoconstrictor activity of SP was also studied."}, "[6]": {"system": "slices of rat dorsal spinal cord", "test": "CGRP-LI outflow from slices of rat dorsal spinal cord (EIA)", "assay_type": "cell-based", "description": "as §1\nIn the rat dorsal spinal cord the experiments with Andolast were performed also in the presence of 100 nM charybdotoxin."}}}
{"smiles": "O=C(Nc1ccc(-c2nn[nH]n2)cc1)c1ccc(-c2nn[nH]n2)cc1", "note": "[Andolast, N-4-(1H-tetrazol-5-yl)phenyl-4-(1H-tetrazol-5-yl)benzamide]", "values": [{"measurement": "outflow of CGRP-LI (without stimulus)", "setting": "[1]; Andolast 0.1-1 μM, guinea pig airway slices", "result": "did not cause any significant increase"}, {"measurement": "inhibition at 1 µM", "setting": "[1]; Cavia porcellus, Andolast 1 μM, KCl 80 mM, read-out: inhibition of the CGRP-LI outflow induced by high K+ medium", "result": 67, "unit": "%"}, {"measurement": "inhibitory effect on EFS-induced [Ca2+]i mobilization in presence of charybdotoxin", "setting": "[2]; 100 nM charybdotoxin (ChTX)", "result": "completely reversed"}, {"measurement": "response to capsaicin ([Ca2+]i)", "setting": "[2]; capsaicin 0.1 μM, pretreatment with Andolast 10 μM", "result": "not affected"}, {"measurement": "mobilization of [Ca2+]i in response to ionomycin", "setting": "[2]; pre-treatment with Andolast 10 μM or its vehicle", "result": "similar"}, {"measurement": "response to EFS ([Ca2+]i mobilization)", "setting": "[2]; pretreatment with Andolast compared to vehicle, EFS 10 Hz, 1 ms, 0.40 mA/cm2 for 10 sec", "result": "diminished the response to EFS"}, {"measurement": "T lymphocytes (Th2) production of IL-5", "setting": "[3]", "result": "inhibitory effect"}, {"measurement": "percentage of eosinophils in the sputum", "setting": "[3]", "result": "decrease"}, {"measurement": "IL-4 dependent IgE synthesis", "setting": "[4]", "result": "potent inhibitory effect"}, {"measurement": "contractile response to SP", "setting": "[5]; Andolast 10 μM", "result": "did not affect"}, {"measurement": "inhibition at 10 µM", "setting": "[5]; Cavia porcellus, 10 μM Andolast, atropine 1 μM, read-out: maximum inhibition of the contractile response to EFS", "result": 45, "unit": "%"}, {"measurement": "effect on EFS contraction in presence of charybdotoxin", "setting": "[5]; charybdotoxin 0.1 μM", "result": "completely abrogated"}, {"measurement": "contractile response to EFS (eNANC)", "setting": "[5]; in the presence of atropine (1 μM), pretreatment with Andolast", "result": "diminished dose-dependently"}, {"measurement": "inhibition of high K+ induced CGRP-LI outflow in presence of charybdotoxin", "setting": "[6]; 100 nM charybdotoxin", "result": "completely abrogated"}, {"measurement": "maximum inhibition of the outflow of CGRP-LI induced by high K+ medium", "setting": "[6]; Andolast 1 μM, KCl 80 mM", "result": "48 % of vehicle"}, {"measurement": "outflow of CGRP-LI (without stimulus)", "setting": "[6]; Andolast 0.1-1 μM, rat dorsal spinal cord slices", "result": "did not cause any significant increase"}, {"measurement": "outflow of CGRP-LI induced by high K+ medium", "setting": "[6]; KCl 80 mM, rat dorsal spinal cord slices", "result": "concentration-dependent inhibition"}]}
